According to PubChem BioAssay (NCI):
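Dose response: 5 concentrations. Exposure: 48 h. Format: 96-well plates. Endpoint: linear interpolation; highest concentration if not reached. At the GI50, growth is halved. At the TGI there is no net growth.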

Key:
Experiment in all cases: DTP human tumour cell line panel, 48 h
[1] = tested on: HCT-15 colon
[2] = tested on: SNB-19 CNS
[3] = tested on: EKVX NSCLC
[4] = tested on: HOP-62 NSCLC
[5] = tested on: COLO 205 colon
[6] = tested on: LOX IMVI melanoma
[7] = tested on: M14 melanoma
[8] = tested on: SN12C renal
[9] = tested on: PC-3 prostate
[10] = tested on: A498 renal

CC1=C(C(=O)Nc2ccc(Cl)c(Cl)c2)C(c2ccccc2O)NC(=O)N1 (stereo not given)
GI50 [1]: > 50 µM
TGI [1]: > 50 µM
GI50 [2]: > 50 µM
TGI [2]: > 50 µM
GI50 [3]: 28.6 µM
TGI [3]: > 50 µM
GI50 [4]: > 50 µM
TGI [4]: > 50 µM
GI50 [5]: 28.3 µM
TGI [5]: > 50 µM
GI50 [6]: 33.4 µM
TGI [6]: > 50 µM
GI50 [7]: > 50 µM
TGI [7]: > 50 µM
GI50 [8]: 34.6 µM
TGI [8]: > 50 µM
GI50 [9]: 33.7 µM
TGI [9]: > 50 µM

Cc1nc(-n2nc(-c3ccccc3)cc2-c2ccccc2)sc1C(/C=C/c1ccc([N+](=O)[O-])cc1)=N/NC(=O)c1ccncc1
TGI [1]: 96.2 µM
TGI [10]: > 100 µM
TGI [2]: > 100 µM
TGI [3]: > 100 µM
TGI [4]: 35 µM
TGI [5]: 58.4 µM
TGI [6]: 48.8 µM
TGI [7]: 50.7 µM
TGI [8]: > 100 µM

COC(=O)/C(=N/NC(N)=O)C(C(=O)OC)C(=O)C(=O)Nc1ccc(Cl)cc1 (stereo not given)
TGI [1]: > 100 µM
TGI [10]: > 100 µM
TGI [2]: > 100 µM
TGI [3]: > 100 µM
TGI [4]: > 100 µM
TGI [5]: > 100 µM
TGI [6]: > 100 µM
TGI [7]: > 100 µM
TGI [8]: > 100 µM

O=C(Nc1cccc(NC(=O)c2cc(=O)c3ccccc3o2)n1)c1cc(=O)c2ccccc2o1
TGI [1]: > 100 µM
TGI [10]: > 100 µM
TGI [2]: > 100 µM
TGI [3]: > 100 µM
TGI [4]: > 100 µM
TGI [5]: > 100 µM
TGI [6]: > 100 µM
TGI [7]: > 100 µM

CN(C=O)/C=C/c1cc(O)ccc1O
TGI [1]: 65.8 µM
TGI [10]: > 100 µM
TGI [2]: > 100 µM
TGI [3]: 63.8 µM
TGI [4]: > 71.5 µM
TGI [5]: 45.4 µM
TGI [6]: 45 µM
TGI [7]: > 57.9 µM
TGI [8]: 44.3 µM

CN1CCc2c1nc(-c1ccc([N+](=O)[O-])cc1)c1c2N(C)CC1
TGI [1]: > 100 µM
TGI [10]: > 100 µM
TGI [2]: > 100 µM
TGI [3]: > 100 µM
TGI [4]: > 100 µM
TGI [5]: > 100 µM
TGI [6]: > 100 µM
TGI [7]: > 100 µM
TGI [8]: > 100 µM

CC(=O)C1C(=O)N(C(C)C)C[C@@H]2CCC(=O)C[C@H]12 (stereo not given in full)
TGI [1]: > 100 µM
TGI [10]: > 100 µM
TGI [2]: > 100 µM
TGI [3]: > 100 µM
TGI [4]: > 100 µM
TGI [5]: > 100 µM
TGI [6]: > 100 µM
TGI [7]: > 100 µM
TGI [8]: > 100 µM

S=c1nc(-c2ccnc(-c3nc(=S)[nH][nH]3)c2)[nH][nH]1
TGI [1]: > 100 µM
TGI [10]: > 100 µM
TGI [2]: > 100 µM
TGI [3]: > 100 µM
TGI [4]: > 100 µM
TGI [5]: > 100 µM
TGI [6]: > 100 µM
TGI [7]: > 100 µM
TGI [8]: > 100 µM
